Series [1] concerns human umbilical vein endothelial cells (HUVEC). Nature of the series: HUVEC proliferation assay co-stimulated with rhVEGF. Type of series: cell-based. The settings on record: Homo sapiens, HUVEC, Table 6. On the procedure:
The HUVEC assay measures the potency of test substances to inhibit in vitro proliferation of human umbilical vein endothelial cells (HUVEC) when co-stimulated with recombinant human vascular endothelial growth factor (rhVEGF).
HUVEC are grown under defined conditions (EGM-2 medium, 37° C., 5% CO2 and 95% humidity). They are seeded into 48-well plates using EBM medium with only 1% serum and incubated for 24 h. This is to ensure that cells are not stimulated before treatment with VEGF and test compound.
Test compounds are diluted in medium to concentrations between 0.05 and 50 μM and dosed together with VEGF165 at 12 ng/ml. This VEGF concentration was determined in a VEGF-dose-response curve to be just sub-optimal for maximum cell proliferation. Cells are incubated for 48 h at above conditions and viable cell density is measured using a tetrazolium compound (MTS). Viable cells reduce MTS into a soluble formazan product, which has an absorbance maximum at 490 nm. The absorbance is directly proportional to cell density.
EBM+1% serum (no VEGF) ? Minimum or Blank
EBM+1% serum (12 ng/ml) ? Maximum

The subject of another series is basic FGF. Put plainly: Basic Fibroblast Growth Factor (FGF)-induced cell proliferation. Type of series: cell-based. The method, then:
(§1) Compounds 1633-00382 and 1633-02177 were tested for selectivity by determining their effect on the following assays: • Basic Fibroblast Growth Factor (FGF)-Induced cell proliferation (Gospodarowicz D, Brown K D, Birdwell C R & Zetter B R (1978) J. Cell. Biol. 77: 774-788); • Epidermal Growth Factor (EGF) radioligand binding assay (Dittadi R, Gion M, Brazzale A., Bruscagnin G. (1990) Clin. Chem. 36: 849-854; Massague J (1983) J. Biol. Chem. 258:13614-13620); and • Platelet-Derived Growth Factor (PDGF) radioligand binding assay (Williams L T, Tremble P M, Lavin M F & Sunday M E (1984) J. Biol. Chem. 259 5287-5294

In series [2] the target is T1, EGF binding to human A431 cells (Homo sapiens, UniProt P00533).
T1 construct: endogenous in cells; host or cells: A431
T1 sequence (P00533 25-1210): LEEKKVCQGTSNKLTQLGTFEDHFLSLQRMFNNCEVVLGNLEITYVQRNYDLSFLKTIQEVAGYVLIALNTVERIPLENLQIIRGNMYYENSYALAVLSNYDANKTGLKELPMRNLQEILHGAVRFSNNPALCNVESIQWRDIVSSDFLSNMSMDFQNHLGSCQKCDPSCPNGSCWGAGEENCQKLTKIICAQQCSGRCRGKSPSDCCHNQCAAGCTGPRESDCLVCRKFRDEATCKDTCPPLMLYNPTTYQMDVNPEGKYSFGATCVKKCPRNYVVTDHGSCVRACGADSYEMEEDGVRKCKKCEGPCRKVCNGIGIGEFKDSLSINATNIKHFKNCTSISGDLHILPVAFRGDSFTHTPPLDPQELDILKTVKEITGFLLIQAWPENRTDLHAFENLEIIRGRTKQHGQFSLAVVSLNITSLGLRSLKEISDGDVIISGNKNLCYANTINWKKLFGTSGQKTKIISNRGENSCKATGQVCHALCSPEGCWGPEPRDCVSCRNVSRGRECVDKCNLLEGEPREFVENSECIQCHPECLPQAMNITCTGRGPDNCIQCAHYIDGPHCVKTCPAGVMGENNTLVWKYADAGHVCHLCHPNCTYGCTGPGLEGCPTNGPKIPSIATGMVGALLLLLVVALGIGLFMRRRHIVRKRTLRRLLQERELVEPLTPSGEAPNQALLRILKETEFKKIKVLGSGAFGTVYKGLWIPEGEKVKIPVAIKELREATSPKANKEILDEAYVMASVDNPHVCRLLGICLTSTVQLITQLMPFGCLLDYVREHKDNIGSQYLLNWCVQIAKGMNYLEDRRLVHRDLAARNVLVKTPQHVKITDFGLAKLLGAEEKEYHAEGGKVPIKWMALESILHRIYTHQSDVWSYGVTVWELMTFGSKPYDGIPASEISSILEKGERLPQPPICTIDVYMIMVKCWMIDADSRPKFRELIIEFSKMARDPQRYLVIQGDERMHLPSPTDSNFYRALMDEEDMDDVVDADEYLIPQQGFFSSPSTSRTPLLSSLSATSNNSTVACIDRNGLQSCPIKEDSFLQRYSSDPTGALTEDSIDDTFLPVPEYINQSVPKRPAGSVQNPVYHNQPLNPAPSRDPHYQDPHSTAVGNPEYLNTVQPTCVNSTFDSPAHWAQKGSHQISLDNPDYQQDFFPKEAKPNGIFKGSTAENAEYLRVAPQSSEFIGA
Put plainly: Epidermal Growth Factor (EGF) radioligand binding assay. The method, then:
as §1

For another series, the target named is T2, rhVEGF165-biotin (Homo sapiens, UniProt P15692).
T2 sequence (P15692 27-191 isoform P15692-4): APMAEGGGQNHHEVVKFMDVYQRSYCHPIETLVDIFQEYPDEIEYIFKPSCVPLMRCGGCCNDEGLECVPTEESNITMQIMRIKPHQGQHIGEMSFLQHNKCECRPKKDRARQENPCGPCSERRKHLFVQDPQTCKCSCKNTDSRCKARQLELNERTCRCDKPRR
Put plainly: VEGF-Binding ELISA (dose-response). To be noted: Table 6. On the procedure: The potency of test substances as a VEGF-neutralising moiety is measured in an ELISA format. This assay measures the solution-phase interaction between rhVEGF165-biotin and test sample. Unbound VEGF165-biotin is then immobilised on a solid-phase anti-hVEGF antibody (R&D systems MAB293). The biotin signal is detected with streptavidin-alkaline phosphatase, which gives a colorimetric signal when incubated with p-nitrophenyl phosphate. Plates are read in a spectrophotometer at 405 nm.
Any test compound that binds to VEGF165-biotin and prevents it from binding to the antibody will lower the color signal and be recognized as a “hit”. Hits were defined as compounds that show>60% inhibition.
VEGF165-biotin+assay buffer ? 0% inhibition
Soluble VEGF receptor (sflt @ 4 nM) ? 70% inhibition
The primary screening of all library compounds was done at a compound concentration of 50 μM, followed by measuring dose-response effects of “hits” between 0.05 and 500 μM for the calculation of IC50 values.
The compounds were dissolved in DMSO and it was shown that the solvent has no effect on the assay at this concentration.
Background: ELISA stands for enzyme-linked immunosorbent assay.

The subject of series [3] is PDGF binding to mouse 3T3 cells. Nature of the series: Platelet-Derived Growth Factor (PDGF) radioligand binding assay. The method, then:
as §1

[4] abbreviates: ***re-tested in full-concentration response assays.

As to `CN(C)c1cccc(C(=O)N2CCC(c3nc(C(=O)Nc4cc(CC(N)=O)ccc4Cl)cs3)CC2)c1` [Compound 1633-02177], the IC50 was 0.478 µM in series [1] (**tested after re-synthesised); 0.712 µM in series [1] (first test (unmarked value)); 0.406 µM in the series on basic FGF (Fibroblast, significant anti-proliferative activity, estimated value, read-out: anti-proliferative activity against basic FGF, estimated value); 18 µM at rhVEGF165-biotin (**tested after re-synthesised); 12 µM on rhVEGF165-biotin (first test (unmarked value)). In addition, the cytotoxicity result in the series with basic FGF (at 10 μM) was “moderate but not significant cytotoxicity”. Further, the “inhibition of EGF binding” value in series [2] is “did not inhibit”. Moreover, the “inhibition of PDGF binding” value in series [3] is on record as “did not inhibit”.
As for `NC(=O)c1ccc(Cl)c(NC(=O)c2csc(C3CCN(C(=O)CSc4ncccn4)CC3)n2)c1` [Compound 1633-00382], the IC50 was 12 µM in series [1] (setting [4]); 20 µM in series [1] (**tested after re-synthesised); 16 µM in series [1] (*re-test 3 months later); 0.938 µM in series [1] (first test (unmarked value)); 1 µM on rhVEGF165-biotin (setting [4]); 4 µM on rhVEGF165-biotin (**tested after re-synthesised). The figures for the IC50 at rhVEGF165-biotin (*re-test 3 months later) and on rhVEGF165-biotin (first test (unmarked value)) were 3.49 µM and 0.655 µM, respectively. Besides, in series [2], the “inhibition of EGF binding” value is given as “did not inhibit”. In series [3], the “inhibition of PDGF binding” value was “did not inhibit”.

(Values after US20060135501A1, “Piperidinyl-thiazole carboxylic acid derivatives as angiogenesis inhibitors” (priority 2002, published 2006).)
